According to PMC5117899 (Cell chemical biology, 2016):

Target: T1, AcnA (Staphylococcus aureus, UniProt Q2FYS9)
T1 sequence (Q2FYS9 1-901): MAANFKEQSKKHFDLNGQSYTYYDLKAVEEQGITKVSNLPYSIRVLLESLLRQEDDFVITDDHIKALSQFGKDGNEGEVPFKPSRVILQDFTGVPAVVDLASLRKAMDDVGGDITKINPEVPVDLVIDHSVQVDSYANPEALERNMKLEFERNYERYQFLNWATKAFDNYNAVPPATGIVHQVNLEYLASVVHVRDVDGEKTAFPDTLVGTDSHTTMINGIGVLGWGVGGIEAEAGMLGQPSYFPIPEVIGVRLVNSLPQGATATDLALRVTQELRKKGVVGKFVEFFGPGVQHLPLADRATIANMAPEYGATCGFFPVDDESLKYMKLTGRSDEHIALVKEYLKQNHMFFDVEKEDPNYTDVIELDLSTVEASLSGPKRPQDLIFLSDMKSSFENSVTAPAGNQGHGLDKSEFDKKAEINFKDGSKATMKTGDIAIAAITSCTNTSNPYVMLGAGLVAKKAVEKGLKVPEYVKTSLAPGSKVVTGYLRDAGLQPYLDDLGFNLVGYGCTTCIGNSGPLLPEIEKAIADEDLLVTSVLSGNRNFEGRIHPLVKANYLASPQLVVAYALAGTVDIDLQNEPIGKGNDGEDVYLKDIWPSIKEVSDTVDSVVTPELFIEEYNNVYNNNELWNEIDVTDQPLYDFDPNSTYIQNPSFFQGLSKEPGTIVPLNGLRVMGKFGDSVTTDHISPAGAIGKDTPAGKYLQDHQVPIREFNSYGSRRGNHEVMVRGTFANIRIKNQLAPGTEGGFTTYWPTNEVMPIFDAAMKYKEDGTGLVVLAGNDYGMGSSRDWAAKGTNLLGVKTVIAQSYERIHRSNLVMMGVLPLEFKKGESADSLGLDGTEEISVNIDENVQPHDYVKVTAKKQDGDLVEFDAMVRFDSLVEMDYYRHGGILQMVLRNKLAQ
Assay: spectrophotometric, cis-aconitate formation at […] nm
Type: biochemical
Settings: Fe-S cluster reconstituted in vitro

## O=C(O)C[C@H](C(=O)O)[C@@H](O)C(=O)O [isocitrate]
  spectrophotometric, cis-aconitate formation at 240 nm: purified AcnA was determined by monitoring the conversion of isocitrate to cis-aconitate spectrophotometrically
